# According to patent US20070270421A1, “Novel pyridine Derivative and Pyrimidine Derivative (1)” (priority 2004, published 2007):
# Biological target: T1, HGFR (His6-HGFR cytoplasmic domain) (Homo sapiens, UniProt P08581)
# T1 construct: made in house; host or cells: Spodoptera frugiperda Sf9 insect cells (baculovirus, pFastBac-HT)
# Test: Inhibitory activity against HGFR tyrosine kinase activity (HTRF)
# Format: biochemical
# Details: biotin-poly(GT), ATP, 30° C. 10 min, read-out: IC50 (concentration necessary to inhibit HGFR kinase activity by 50%)
# Text: The cytoplasmic domain of HGFR (Genbank Accession No. J02958) is a 1.3 kb DNA fragment beginning with Lys974 and including a stop codon, and described by Park et al. (Proc. Natl. Acad. Sci. U.S.A. 84(18), 6379-6383, 1987). The DNA fragment was isolated from the human placental cDNA library (purchased from Clontech) by PCR (TaKaRa Ex Taq™ Kit, purchased from TaKaRa) using two kinds of primers (SEQ ID NO: 1, 5′-[…]-3′ and SEQ ID NO: 2, 5′-[…]-3′, purchased from Invitrogen). The DNA fragment was cloned into a baculovirus transplace vector (pFastBac™-HT (purchased from GIBCO BRL)) to produce a recombinant construct. The construct was transfected into insect cells (Spodoptera frugiperda 9 (Sf9)) to produce a solution of HGFR transfected baculovirus (preparation of a recombinant baculovirus can be found in the standard text (Bac-to-Bac Baculovirus Expression System (GIBCO BRL)). The cloning of the other receptor tyrosine kinases and preparation of the recombinant baculovirus solutions were performed using a cytoplasmic fragment starting from Lys791 (VEGFR2, Genbank Accession No. L04947), a cytoplasmic fragment starting from Lys398 (FGFR1, Genbank Accession No. X52833) and a cytoplasmic fragment starting from Lys558 (PDGFRβ, Genbank Accession No. M21616) in stead of HGFR in the above method. EGFR was purchased from Sigma (Production No. E-2645).
# To the suspension of Sf9 cells (3×10^8 cells) in SF-900II medium (purchased from Invitrogen) containing 2% FBS was added a solution of HGFR transfected baculovirus above (4 ml), followed by a shaking culture at 27° C. for 48 hrs. The cells infected with the HGFR transfected baculovirus were centrifuged at 1,000 rpm, 4° C. for 5 min to remove the supernatant. The precipitated infected cells were suspended in 80 ml of ice-cold PBS, and centrifuged at 1,000 rpm, 4° C. for 5 min to remove the supernatant. The precipitated infected cells were suspended in 40 ml of ice-cold Lysis Buffer (50 mM Tris-HCl (pH 8.5), 5 mM 2-mercaptoethanol, 100 mM KCl, 1 mM PMSF and 1% (v/v) NP-40). The suspension was centrifuged at 12,000 rpm, 4° C. for 30 min to provide a supernatant.
# The supernatant was loaded onto an Ni-NTA agarose column (3 ml, purchased from Qiagen) equilibrated with 30 ml of Buffer A (20 mM Tris-HCl (pH 8.5), 5 mM 2-mercaptoethanol, 500 mM KCl, 20 mM imidazole and 10% (v/v) glycerol). The column was washed with 30 ml of Buffer A, 6 ml of Buffer B (20 mM Tris-HCl (pH 8.5), 5 mM 2-mercaptoethanol, 1 M KCl, and 10% (v/v) glycerol) and 6 ml of Buffer A in this order. Then, the column was eluted with 6 ml of Buffer C (20 mM Tris-HCl (pH 8.5), 5 mM 2-mercaptoethanol, 100 mM KCl, 100 mM imidazole, and 10% (v/v) glycerol) to provide a fraction. The fraction was entrapped in a dialysis membrane (purchased from Spectrum Laboratories), dialyzed at 4° C. overnight with 1 L of dialysis buffer (20 mM Tris-HCl (pH 7.5), 10% (v/v) glycerol, 1 mM dithiothreitol, 0.1 mM Na3VO4 and 0.1 mM EGTA), and stored at −80° C. until used. An aliquot of the dialyzed fraction was subjected to SDS electrophoresis, and then a recombinant protein (His6-HGFR, the HGFR cytoplasmic domain fused with six histidine at the N terminus) detected at a molecular weight of about 60 kDa when stained with Coomassie Brilliant Blue, was determined with regard to protein content using BSA (purchased from Sigma) as a standard. The VEGFR2 cytoplasmic domain, the FGFR1 cytoplasmic domain, and the PDGFRβ cytoplasmic domain were fused with six histidine at the N terminus by the similar method to produce respective recombinant proteins (His6-VEGFR2, His6-FGFR1, and His6-PDGFRβ). […]
# T1 sequence (P08581 956-1390 limits assumed): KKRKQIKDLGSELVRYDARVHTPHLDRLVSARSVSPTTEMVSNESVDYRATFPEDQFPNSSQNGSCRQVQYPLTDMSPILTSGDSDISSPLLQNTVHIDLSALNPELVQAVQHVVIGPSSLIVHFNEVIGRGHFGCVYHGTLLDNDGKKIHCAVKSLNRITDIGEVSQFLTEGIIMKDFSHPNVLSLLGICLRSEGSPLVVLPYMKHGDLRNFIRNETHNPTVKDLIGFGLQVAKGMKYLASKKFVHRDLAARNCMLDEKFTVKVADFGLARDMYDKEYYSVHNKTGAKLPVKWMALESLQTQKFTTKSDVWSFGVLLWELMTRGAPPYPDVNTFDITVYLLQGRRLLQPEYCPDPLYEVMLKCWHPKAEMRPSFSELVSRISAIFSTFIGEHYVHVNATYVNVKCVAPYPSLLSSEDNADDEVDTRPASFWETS
row,IC50 [nM],Structure (SMILES)
1,68,"CN(C)[C@H]1CCN(C(=O)Nc2cc(Oc3ccc(NC(=O)NC(=O)Cc4ccccc4)cc3F)ccn2)C1 [Example 250, 2-{[(3S)-3-Dimethylaminopyrrolidin-1-yl]carbonylamino}-4-{2-fluoro-4-[3-(2-phenylacetyl)ureido]phenoxy}pyridine]"
2,57,"CN1CCN(C2CCN(C(=O)Nc3cc(Oc4ccc(NC(=S)NC(=O)Cc5ccc(F)cc5)cc4)ccn3)CC2)CC1 [Example 191, 4-(4-{3-[2-(4-Fluorophenyl)acetyl]thioureido}phenoxy)-2-{[4-(1-methylpiperazin-4-yl)piperidin-1-yl]carbonylamino}pyridine]"
3,70,"CN1CCN(C2CCN(C(=O)Nc3cc(Oc4ccc(NC(=S)NC(=O)Cc5ccccc5)cc4F)ccn3)CC2)CC1 [Example 182, 4-{2-Fluoro-4-[3-(2-phenylacetyl)thioureido]phenoxy}-2-{[4-(1-methylpiperazin-4-yl)piperidin-1-yl]carbonylamino}pyridine]"
4,38,"CN(C)CC1CCN(C(=O)Nc2cc(Oc3ccc(NC(=S)NC(=O)Cc4ccc(F)cc4)cc3F)ncn2)CC1 [Example 180, 4-{[4-(Dimethylaminomethyl)piperidin-1-yl]carbonylamino}-6-(2-fluoro-4-{3-[2-(4-fluorophenyl)acetyl]thioureido}phenoxy)pyrimidine]"
5,57,CN1CC(N2CCN(C(=O)Nc3cc(Oc4ccc(NC(=S)NC(=O)Cc5ccc(F)cc5)cc4F)ncn3)CC2)C1 [Example 196]
6,42,"CN(C)C[C@@H]1CCN(C(=O)Nc2cc(Oc3ccc(NC(=S)NC(=O)Cc4ccc(F)cc4)c(F)c3)ccn2)C1 [Example 219, (3S)-3-Dimethylaminomethylpyrrolidine-1-carboxylic acid [4-(3-fluoro-4-{3-[2-(4-fluorophenyl)acetyl]thioureido}phenoxy)pyridin-2-yl]amide]"
7,83,CN1CC(N2CCN(C(=O)Nc3cc(Oc4ccc(NC(=S)NC(=O)Cc5ccccc5)cc4F)ccn3)CC2)C1 [Example 381]
8,74,"O=C(Cc1ccc(F)cc1)NC(=O)Nc1ccc(Oc2ccnc(NC(=O)N3CCC(N4CCCC4)CC3)c2)c(F)c1 [Example 174, 4-(Pyrrolidin-1-yl)piperidine-1-carboxylic acid [4-(2-fluoro-4-{3-[2-(4-fluorophenyl)acetyl]ureido}phenoxy)pyridin-2-yl]amide]"
9,64,"O=C(Cc1ccc(F)cc1)NC(=S)Nc1ccc(Oc2cc(NC(=O)N3CCC(N4CCC4)CC3)ncn2)c(F)c1 [Example 172, 4-(Azetidin-1-yl)piperidine-1-carboxylic acid [6-(2-fluoro-4-{3-[2-(4-fluorophenyl)acetyl]thioureido}phenoxy)pyrimidin-4-yl]amide]"
10,16,"CN(C(=O)Nc1cc(Oc2ccc(NC(=S)NC(=O)Cc3ccc(F)cc3)cc2F)ncn1)C1CCOCC1 [Example 288, 3-[6-(2-Fluoro-4-{3-[2-(4-fluorophenyl)acetyl]thioureido}phenoxy)pyrimidin-4-yl]-1-methyl-1-(tetrahydropyran-4-yl)urea]"
11,110,"CN1CCN(C2CCN(C(=O)Nc3cc(Oc4ccc(NC(=O)NC(=O)Cc5ccc(F)cc5)cc4)ccn3)CC2)CC1 [Example 344, 4-(4-{3-[2-(4-Fluorophenyl)acetyl]ureido}phenoxy)-2-{[4-(1-methylpiperazin-4-yl)piperidin-1-yl]carbonylamino}pyridine]"
12,56,"O=C(Cc1ccccc1)NC(=S)Nc1ccc(Oc2cc(NC(=O)N3CCC(CN4CCC4)CC3)ncn2)c(F)c1 [Example 393, 4-(Azetidin-1-ylmethyl)piperidine-1-carboxylic acid {6-[2-fluoro-4-(3-phenylacetylthioureido)phenoxy]pyrimidin-4-yl}amide]"
13,100,"O=C(Cc1ccccc1)NC(=S)Nc1ccc(Oc2ccnc(NC(=O)N3CC(N4CCCC4)C3)c2)c(F)c1 [Example 261, 3-(Pyrrolidin-1-yl)azetidine-1-carboxylic acid {4-[2-fluoro-4-(3-phenylacetylthioureido)phenoxy]pyridin-2-yl}amide]"
